Data set [1] can be described thus: In vitro lipophilicity by RP-TLC. The format is physicochemical. Conditions: for PC2 / PC1: PCA score on RM values; for PC1: lower value = more lipophilic; for RM / Rf / mRM / RM0 / b / lipophilicity ranking (in words): RP-TLC; for mRM: arithmetic mean of RM values; for RM0: extrapolation of RM to 0% organic modifier; for b: slope of the line RM = f(c); for lipophilicity ranking (in words): within series 5a–c. Here is the method:
The chromatographic performance of compounds 5a–c was investigated by reverse-phase thin-layer chromatography (RP-TLC). Standardized Silica gel 60 RP-18 F254S chromatographic plates (20 × 10 cm, Merck, Darmstadt, Germany) were used as the stationary phase, and an i-propanol–water mixture, in volumetric proportions ranging from 40% to 60% (v/v) i-propanol, was used as the mobile phase. The variance between two successive elution mixtures was 5%.
Solutions containing 1 mg/mL of compounds 5a–c were prepared in dimethylsulfoxide (DMSO). A volume equal to 2 μL of each sample was manually applied using chromatographic capillary micropipettes, at a distance of 10 mm from the lower side of the plates and 10 mm from their lateral sides. The gap between two successive spots was 10 mm.
The development process was carried out at room temperature using a chromatographic chamber pre-saturated for 30 min with mobile-phase vapors. The migration distance of the mobile phase was 80 mm for all concentrations used, and it was determined manually by calculating the retention factor Rf; thus, Rf = migration distance of the compound/migration distance of the mobile phase. Rf values were calculated for each tested compound at all five concentrations of the mobile phase.
The spots were visualized under UV light at a wavelength of 254 nm.
Starting from the Rf values determined by RP-TLC, a series of lipophilicity parameters was calculated. Therefore, based on the Bate-Smith and Westall equation, the logarithmic RM values were obtained:RM = log [1/Rf−1](2)
Based on the linear relationship between the RM value and the concentration of the organic solvent in the mobile phase [c], using the linear regression equation and the Soczewinski–Wachtmeister model (where b = slope of the line and c = concentration of organic modifier), the values of another lipophilicity parameter, RM0, were determined by extrapolating the RM values to 0% organic modifier:RM = RM0 + b[c](3)
The arithmetic mean of the lipophilicity parameter RM values, corresponding to a series of concentrations of the organic modifier in the mobile phase, was determined. Therefore, the mRM lipophilicity parameter was obtained.
Applying principal component analysis (PCA, XL-STAT) to the lipophilicity parameter RM, new lipophilicity parameters represented by the principal components (PCs) were obtained.
Starting from the experimentally determined Rf values, the RM logarithmic values were calculated. Consequently, the presence of minor errors in determining the Rf values can generate errors in calculating the RM values. By analyzing the principal components, the errors in estimating the RM0 values are eliminated through extrapolation, thereby providing more precise results.

A short description of data set [2]: In vitro lipophilicity by RP-HPLC. The format is physicochemical. The conditions noted are these: logarithm of the capacity factor. Here is the method:
The chromatographic behavior of compounds 5a–c was also examined by high-performance liquid chromatography coupled with mass spectrometry (HPLC-MS). The analyses were conducted using an Agilent 1100 series HPLC system (binary pump, autosampler, thermostat, UV detector, Agilent Technologies, USA) coupled to a Bruker Ion Trap SL system (Bruker Daltonics GmbH). Chromatographic separation was completed using a Zorbax SB-C18 column (50 mm × 2.1 mm i.d., 3.5 μm, Agilent Technologies). The mobile phase consisted of a mixture of water with 0.1% (v/v) acetic acid and acetonitrile. The elution gradient started at 15% acetonitrile and increased to 95% within 5 min. The flow rate was 0.6 mL/min, and the thermostat was set at 45 °C. UV detection was performed at 242 nm. Based on the retention times obtained, the capacity factor k was calculated using formula […], where tR = retention time of the compound and t0 = retention time of the solvent:k = (tR − t0)/t0,(4)
The logarithm of the capacity factor (log k) was used to estimate the lipophilicity of the compounds [71]. The RP-HPLC method has multiple advantages, including low sample requirements, good accuracy of determinations, fast analysis, and high reproducibility.

For data set [3], the system named is human hepatocellular carcinoma (HepG2). The data set can be described thus: MTT cytotoxicity assay on HepG2 cells. The format is cell-based. Conditions: for IC50: Homo sapiens, HepG2 cells, MTT; for IC50 / Selectivity Index (SI): 48 h; for Selectivity Index (SI): SI = IC50 BJ/IC50 HepG2. Here is the method:
(§1) Compounds 5a–c were dissolved in dimethylsulfoxide (DMSO) at an initial concentration of 10 mM, which was diluted 10 times with the characteristic medium and placed on plates at final concentrations ranging from 12.5 to 150 μM. The cells were seeded on plates of 96 wells at a density of 1 × 10^4 cells per well and incubated for 48 h. The culture medium was removed, and then 100 µL MTT (3-(4,5-dimethylthiazol-2-yl)-2,5-diphenyltetrazolium bromide) was added for 1 h. After that, it was removed, and 150 µL of pure dimethylsulfoxide (DMSO) was added. The samples were read using an ELISA Reader (BioTek, Winooski, VT, USA) at 570 nm. […] All determinations were made in triplicate.
(§2) The half-maximal inhibitory concentration (IC50) values were calculated to evaluate the potency of compounds 5a–c by fitting the investigational data with a 4-parameter logistic curve to obtain the dose-effect curves. The experimental IC50 results are expressed as mean values ± standard deviation (SD) of the three biological replicates.
(§3) Two-way analysis of variance (ANOVA) with a post hoc Bonferroni test was used to statistically examine the relative cell viability (%), compared to the negative control (NC), which was 100%. Data were analyzed using the […] software (GraphPad Prism 8.0.2. Software, La Jolla, CA, USA). In terms of statistical analysis, the results were considered different at values of p < 0.05 or p < 0.001.
The selectivity index (SI) was used as a parameter to determine how many times more cytotoxic the investigated compounds were by exposing them to normal and cancer cells. It was calculated using the IC50 value ratio between the BJ cell line and the HepG2 cell line, both obtained from ATCC (Manassas, VA, USA). Results that are greater than 2 are considered suitable, as reported in the literature.
Background: Tetrazolium dyes change colour on reduction, which living cells bring about.

In data set [4] the test system is human foreskin fibroblasts (BJ). The data set can be described thus: MTT cytotoxicity assay on BJ cells. The format is cell-based. The conditions noted are these: 48 h; for cytotoxicity on BJ cell line (in words) / IC50: BJ cells; for IC50: Homo sapiens, MTT. Here is the method:
as §1, §2, §3

Setting [5] is: Isopropanol–Water 40:60 (v:v %).
The mark [6] stands for this setting: Isopropanol–Water 45:55 (v:v %).
The mark [7] stands for this setting: Isopropanol–Water 50:50 (v:v %).
Where [8] appears, read: Isopropanol–Water 55:45 (v:v %).
Setting [9] is: Isopropanol–Water 60:40 (v:v %).

Molecules are shown by their SMILES.

By IC50 is commonly meant the point on the concentration scale where inhibition reaches its midpoint. Lower therefore signals greater potency in that assay. Regarding `C=CCn1c(SCC(=O)c2ccc(O)c(C(N)=O)c2)nc2ccccc2c1=O` [5a, 5-(2-((3-allyl-4-oxo-3,4-dihydroquinazolin-2-yl)thio)acetyl)-2-hydroxybenzamide], in data set [1], the PC2 is −0.09, the PC1 turned out to be 0.64, the mRM is recorded as −0.16 and the RM0 was −0.03. In data set [1], this molecule registered a b of 1.60. Further, in data set [1] (setting [5]), the RM came to 0.12 and the Rf was determined as 0.43. In data set [1] (setting [6]), this molecule had an RM of 0.03 and a Rf of 0.48. Besides, in data set [1] (setting [7]), the RM is reported as −0.08 and the Rf is recorded as 0.55. Moreover, in data set [1] (setting [8]), the RM is reported as −0.28 and the Rf came to 0.66. Also, in data set [1] (setting [9]), the RM is reported as −0.60 and the Rf amounted to 0.8. In data set [2], this molecule returned a log k of 0.93. Moreover, the 50% inhibitory concentration (IC50) in data set [3] is over 50 µM. For the same molecule, in data set [4], the “cytotoxicity on BJ cell line (in words)” value was “less cytotoxic or non-cytotoxic” and the IC50 was over 100 µM.

With `NC(=O)c1cc(C(=O)CSc2nc3ccccc3c(=O)n2Cc2ccccc2)ccc1O` [5b, 5-(2-((3-benzyl-4-oxo-3,4-dihydroquinazolin-2-yl)thio)acetyl)-2-hydroxybenzamide], in data set [1], the PC2 is given as 0.41, the PC1 is given as −2.01, the mRM was 0.02 and the RM0 is recorded as −0.03. Moreover, in data set [1], the b is recorded as 1.95 and the “lipophilicity ranking (in words)” value is given as “The most lipophilic compound”. Also, in data set [1] (setting [5]), the RM is 0.36 and the Rf came to 0.30. In data set [1] (setting [6]), this molecule had an RM of 0.23 and a Rf of 0.37. In data set [1] (setting [7]), this molecule yielded an RM of 0.06 and a Rf of 0.46. Besides, in data set [1] (setting [8]), the RM is −0.14 and the Rf worked out at 0.58. Moreover, in data set [1] (setting [9]), the RM was −0.41 and the Rf came out at 0.72. The log k in data set [2] turned out to be 0.99. Further, in data set [3], the “Selectivity Index (SI)” value was 1.06 and the midpoint of inhibition, the IC50, lay at 24.87 ± 0.19 µM. For the same molecule, in data set [4], the “cytotoxicity on BJ cell line (in words)” value is reported as “moderate cytotoxicity” and the IC50 came out at 26.6 ± 1.07 µM. Also, the “reduction of viability values” in data set [4] (BJ, concentrations higher than 50 and 100 µM) was “more than 35%”. Moreover, the “decrease of cell viability” value in data set [4] (BJ, concentrations over 25 µM) is given as “more than 50%”.

As to `CCn1c(SCC(=O)c2ccc(O)c(C(N)=O)c2)nc2ccccc2c1=O` [5c, 5-(2-((3-ethyl-4-oxo-3,4-dihydroquinazolin-2-yl)thio)acetyl)-2-hydroxybenzamide], in data set [1], the PC2 is on record as −0.31, the PC1 came to 1.37, the mRM was −0.21 and the RM0 is on record as −0.03. For the same molecule, in data set [1], the b turned out to be 1.46 and the “lipophilicity ranking (in words)” value is on record as “The least lipophilic compound”. In data set [1] (setting [5]), this molecule displayed an RM of 0.05 and a Rf of 0.47. Moreover, in data set [1] (setting [6]), the RM is on record as −0.01 and the Rf is listed as 0.51. In data set [1] (setting [7]), this molecule had an RM of −0.14 and a Rf of 0.58. In data set [1] (setting [8]), the RM is recorded as −0.32 and the Rf is 0.68. In data set [1] (setting [9]), this molecule came in with an RM of −0.62 and a Rf of 0.81. The log k in data set [2] is reported as 0.91. Moreover, in data set [3], the “Selectivity Index (SI)” value amounted to 1.35 and it took 25.46 ± 0.2 µM to reach half-maximal inhibition (IC50). Moreover, in data set [3] (HepG2, 48 h, over 37.5 µM), the “reduction in cell viability (in words)” value was “important reduction in cell viability”. In data set [4], the “cytotoxicity on BJ cell line (in words)” value is on record as “moderate cytotoxicity” and the IC50 was 34.5 ± 1.09 µM. Moreover, the “relative cell viability result (in words)” value in data set [4] (BJ, over 37.5 µM) is “significantly unfavorable”.

With `CNC(=O)c1cc(Oc2ccc(NC(=O)Nc3ccc(Cl)c(C(F)(F)F)c3)cc2)ccn1` [Sorafenib, reference compound], the cell viability level entry in data set [3] (HepG2, 48 h, concentrations exceeding 5 µM) is recorded as “below 50%”. The IC50 in data set [3] worked out at 4.87 ± 0.19 µM; in data set [4] it was 5.11 ± 0.16 µM.

Source of the values: PMC12736141, “New Quinazolin-4(3H)-one Derivatives as Potential Antitumoral Compounds: Synthesis, In Vitro Cytotoxicity Against the HepG2 Cell Line, and In Silico VEGFR-2 Targeting-Based Studies” (Molecules, 2025).
